Experimental data as given in the kinase profiling compilation of Christmann-Franck et al. (2016).

Key:
Assay in all cases: KINOMEscan competition binding
MAP3K9 (human) = MAP3K9 (human) (UniProt P80192); conditions: compound 1.0 µM
RPS6KA2 KD2 (human) = RPS6KA2 KD2 (human) (UniProt Q15349); conditions: compound 1.0 µM
MAP2K4 (human) = MAP2K4 (human) (UniProt P45985); conditions: compound 1.0 µM
CLK2 (human) = CLK2 (human) (UniProt P49760); conditions: compound 1.0 µM
HUNK (human) = HUNK (human) (UniProt P57058); conditions: compound 1.0 µM
[1] = system: MET (human), P08581 [M1250T]; conditions: compound 1.0 µM
CDKL5 (human) = CDKL5 (human) (UniProt O76039)
MAPK7 (human) = MAPK7 (human) (UniProt Q13164); conditions: compound 1.0 µM
ALK (human) = ALK (human) (UniProt Q9UM73); conditions: compound 1.0 µM
STK32B (human) = STK32B (human) (UniProt Q9NY57); conditions: compound 1.0 µM
DYRK1A (human) = DYRK1A (human) (UniProt Q13627); conditions: compound 1.0 µM
MAPKAPK2 (human) = MAPKAPK2 (human) (UniProt P49137); conditions: compound 1.0 µM
PIM3 (human) = PIM3 (human) (UniProt Q86V86); conditions: compound 1.0 µM
EPHB6 (human) = EPHB6 (human) (UniProt O15197); conditions: compound 1.0 µM
PRKAA1 (human) = PRKAA1 (human) (UniProt Q13131); conditions: compound 1.0 µM
IGF1R (human) = IGF1R (human) (UniProt P08069); conditions: compound 1.0 µM
[2] = system: RET (human), P07949 [V804M]; conditions: compound 1.0 µM
TEC (human) = TEC (human) (UniProt P42680); conditions: compound 1.0 µM
CDC42BPB (human) = CDC42BPB (human) (UniProt Q9Y5S2); conditions: compound 1.0 µM
EPHA8 (human) = EPHA8 (human) (UniProt P29322); conditions: compound 1.0 µM
NEK9 (human) = NEK9 (human) (UniProt Q8TD19); conditions: compound 1.0 µM
EPHA5 (human) = EPHA5 (human) (UniProt P54756); conditions: compound 1.0 µM
[3] = system: EGFR (human), P00533 [747-751 del / S ins]; conditions: compound 1.0 µM
NEK6 (human) = NEK6 (human) (UniProt Q9HC98); conditions: compound 1.0 µM
MKNK2 (human) = MKNK2 (human) (UniProt Q9HBH9); conditions: compound 1.0 µM
MAP3K2 (human) = MAP3K2 (human) (UniProt Q9Y2U5); conditions: compound 1.0 µM
PIK3CG (human) = PIK3CG (human) (UniProt P48736); conditions: compound 1.0 µM
[4] = system: RET (human), P07949 [M918T]; conditions: compound 1.0 µM
BTK (human) = BTK (human) (UniProt Q06187); conditions: compound 1.0 µM
STK16 (human) = STK16 (human) (UniProt O75716); conditions: compound 1.0 µM
PIM1 (human) = PIM1 (human) (UniProt P11309); conditions: compound 1.0 µM
[5] = system: EGFR (human), P00533 [752-759 del]; conditions: compound 1.0 µM
MTOR (human) = MTOR (human) (UniProt P42345); conditions: compound 1.0 µM
FGFR3 (human) = FGFR3 (human) (UniProt P22607); conditions: compound 1.0 µM
CDK2 (human) = CDK2 (human) (UniProt P24941); conditions: compound 1.0 µM
CHUK (human) = CHUK (human) (UniProt O15111); conditions: compound 1.0 µM
PIK3CB (human) = PIK3CB (human) (UniProt P42338); conditions: compound 1.0 µM
MAP3K5 (human) = MAP3K5 (human) (UniProt Q99683); conditions: compound 1.0 µM
CLK4 (human) = CLK4 (human) (UniProt Q9HAZ1); conditions: compound 1.0 µM
MELK (human) = MELK (human) (UniProt Q14680); conditions: compound 1.0 µM
[6] = system: EGFR (human), P00533 [L858R]; conditions: compound 1.0 µM
PRKAA2 (human) = PRKAA2 (human) (UniProt P54646); conditions: compound 1.0 µM
INSR (human) = INSR (human) (UniProt P06213); conditions: compound 1.0 µM

Chain of CDKL5 (human) (O76039 whole entry, looked up): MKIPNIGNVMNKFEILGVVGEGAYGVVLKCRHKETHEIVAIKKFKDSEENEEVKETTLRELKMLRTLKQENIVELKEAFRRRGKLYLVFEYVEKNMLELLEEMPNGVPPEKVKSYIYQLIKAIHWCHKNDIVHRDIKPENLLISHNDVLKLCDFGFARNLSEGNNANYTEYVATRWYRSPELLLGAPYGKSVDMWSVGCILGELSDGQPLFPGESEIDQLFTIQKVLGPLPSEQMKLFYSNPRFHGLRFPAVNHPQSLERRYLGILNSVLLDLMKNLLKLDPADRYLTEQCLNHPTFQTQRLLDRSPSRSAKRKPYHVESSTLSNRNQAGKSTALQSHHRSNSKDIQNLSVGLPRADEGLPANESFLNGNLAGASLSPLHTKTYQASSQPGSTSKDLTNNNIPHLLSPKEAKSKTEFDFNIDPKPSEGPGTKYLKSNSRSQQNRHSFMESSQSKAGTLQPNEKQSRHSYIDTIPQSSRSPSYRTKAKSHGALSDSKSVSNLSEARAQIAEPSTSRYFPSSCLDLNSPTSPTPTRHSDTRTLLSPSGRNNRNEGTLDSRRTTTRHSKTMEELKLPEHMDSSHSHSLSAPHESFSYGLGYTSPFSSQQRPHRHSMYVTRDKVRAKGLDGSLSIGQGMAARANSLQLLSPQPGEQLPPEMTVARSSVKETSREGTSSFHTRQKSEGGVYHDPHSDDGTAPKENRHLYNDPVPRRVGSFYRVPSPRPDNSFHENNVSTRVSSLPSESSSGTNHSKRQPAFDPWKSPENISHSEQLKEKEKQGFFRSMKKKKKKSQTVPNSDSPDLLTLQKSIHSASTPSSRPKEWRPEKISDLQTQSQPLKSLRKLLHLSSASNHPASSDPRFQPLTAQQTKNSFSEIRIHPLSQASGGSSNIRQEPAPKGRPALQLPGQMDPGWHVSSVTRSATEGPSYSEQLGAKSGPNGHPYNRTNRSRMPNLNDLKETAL
Chain of CLK4 (human) (Q9HAZ1 whole entry, looked up): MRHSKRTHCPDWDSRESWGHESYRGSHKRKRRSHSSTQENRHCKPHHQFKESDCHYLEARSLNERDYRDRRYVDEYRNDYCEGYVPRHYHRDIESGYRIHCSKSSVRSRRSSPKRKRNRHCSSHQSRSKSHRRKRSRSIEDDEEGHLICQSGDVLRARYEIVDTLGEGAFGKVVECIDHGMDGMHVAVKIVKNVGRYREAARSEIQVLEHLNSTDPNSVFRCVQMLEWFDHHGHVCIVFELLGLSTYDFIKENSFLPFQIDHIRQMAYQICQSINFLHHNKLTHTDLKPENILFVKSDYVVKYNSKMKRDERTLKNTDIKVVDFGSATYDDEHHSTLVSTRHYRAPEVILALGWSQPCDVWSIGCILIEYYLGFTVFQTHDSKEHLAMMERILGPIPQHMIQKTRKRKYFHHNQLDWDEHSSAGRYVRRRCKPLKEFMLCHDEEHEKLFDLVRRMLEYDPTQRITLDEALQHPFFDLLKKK
Chain of NEK9 (human) (Q8TD19 whole entry, looked up): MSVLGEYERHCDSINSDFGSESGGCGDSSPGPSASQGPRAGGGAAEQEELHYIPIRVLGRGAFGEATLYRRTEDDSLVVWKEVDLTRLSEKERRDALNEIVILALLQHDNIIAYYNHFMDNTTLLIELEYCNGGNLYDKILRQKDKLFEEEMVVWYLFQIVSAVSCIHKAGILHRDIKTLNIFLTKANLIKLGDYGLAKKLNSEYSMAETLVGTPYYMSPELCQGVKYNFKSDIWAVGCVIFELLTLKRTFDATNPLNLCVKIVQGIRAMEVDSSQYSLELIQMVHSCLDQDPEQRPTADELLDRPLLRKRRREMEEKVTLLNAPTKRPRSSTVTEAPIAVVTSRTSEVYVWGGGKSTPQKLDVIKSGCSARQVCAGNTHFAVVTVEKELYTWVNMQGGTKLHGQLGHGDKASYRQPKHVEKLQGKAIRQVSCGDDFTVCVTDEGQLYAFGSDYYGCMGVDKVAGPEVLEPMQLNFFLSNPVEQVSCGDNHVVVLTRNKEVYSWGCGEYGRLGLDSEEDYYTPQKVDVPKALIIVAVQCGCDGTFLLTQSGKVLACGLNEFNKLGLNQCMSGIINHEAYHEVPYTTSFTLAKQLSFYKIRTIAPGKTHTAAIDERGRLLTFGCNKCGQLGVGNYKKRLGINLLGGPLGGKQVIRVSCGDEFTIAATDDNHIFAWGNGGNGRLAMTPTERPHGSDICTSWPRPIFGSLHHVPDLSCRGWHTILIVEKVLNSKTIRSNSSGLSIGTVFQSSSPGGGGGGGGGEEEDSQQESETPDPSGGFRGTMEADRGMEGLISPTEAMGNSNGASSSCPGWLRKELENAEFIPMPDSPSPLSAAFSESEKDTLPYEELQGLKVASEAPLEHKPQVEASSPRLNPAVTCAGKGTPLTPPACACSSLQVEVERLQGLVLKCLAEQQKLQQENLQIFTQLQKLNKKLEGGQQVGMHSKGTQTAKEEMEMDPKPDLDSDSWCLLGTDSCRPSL
Chain of MKNK2 (human) (Q9HBH9 whole entry, looked up): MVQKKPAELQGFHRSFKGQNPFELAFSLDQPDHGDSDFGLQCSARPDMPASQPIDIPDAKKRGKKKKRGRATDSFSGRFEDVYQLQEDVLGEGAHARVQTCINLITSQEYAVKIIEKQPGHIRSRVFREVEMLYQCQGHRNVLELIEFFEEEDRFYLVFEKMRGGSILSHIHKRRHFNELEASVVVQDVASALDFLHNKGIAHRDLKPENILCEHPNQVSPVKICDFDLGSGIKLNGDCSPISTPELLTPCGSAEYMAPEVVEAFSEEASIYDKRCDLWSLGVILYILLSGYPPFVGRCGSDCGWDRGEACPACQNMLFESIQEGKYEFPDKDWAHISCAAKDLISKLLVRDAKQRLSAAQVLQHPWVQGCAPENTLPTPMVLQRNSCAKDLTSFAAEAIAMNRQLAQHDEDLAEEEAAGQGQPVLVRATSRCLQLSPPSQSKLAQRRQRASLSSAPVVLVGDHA
Chain of PIK3CG (human) (P48736 whole entry, looked up): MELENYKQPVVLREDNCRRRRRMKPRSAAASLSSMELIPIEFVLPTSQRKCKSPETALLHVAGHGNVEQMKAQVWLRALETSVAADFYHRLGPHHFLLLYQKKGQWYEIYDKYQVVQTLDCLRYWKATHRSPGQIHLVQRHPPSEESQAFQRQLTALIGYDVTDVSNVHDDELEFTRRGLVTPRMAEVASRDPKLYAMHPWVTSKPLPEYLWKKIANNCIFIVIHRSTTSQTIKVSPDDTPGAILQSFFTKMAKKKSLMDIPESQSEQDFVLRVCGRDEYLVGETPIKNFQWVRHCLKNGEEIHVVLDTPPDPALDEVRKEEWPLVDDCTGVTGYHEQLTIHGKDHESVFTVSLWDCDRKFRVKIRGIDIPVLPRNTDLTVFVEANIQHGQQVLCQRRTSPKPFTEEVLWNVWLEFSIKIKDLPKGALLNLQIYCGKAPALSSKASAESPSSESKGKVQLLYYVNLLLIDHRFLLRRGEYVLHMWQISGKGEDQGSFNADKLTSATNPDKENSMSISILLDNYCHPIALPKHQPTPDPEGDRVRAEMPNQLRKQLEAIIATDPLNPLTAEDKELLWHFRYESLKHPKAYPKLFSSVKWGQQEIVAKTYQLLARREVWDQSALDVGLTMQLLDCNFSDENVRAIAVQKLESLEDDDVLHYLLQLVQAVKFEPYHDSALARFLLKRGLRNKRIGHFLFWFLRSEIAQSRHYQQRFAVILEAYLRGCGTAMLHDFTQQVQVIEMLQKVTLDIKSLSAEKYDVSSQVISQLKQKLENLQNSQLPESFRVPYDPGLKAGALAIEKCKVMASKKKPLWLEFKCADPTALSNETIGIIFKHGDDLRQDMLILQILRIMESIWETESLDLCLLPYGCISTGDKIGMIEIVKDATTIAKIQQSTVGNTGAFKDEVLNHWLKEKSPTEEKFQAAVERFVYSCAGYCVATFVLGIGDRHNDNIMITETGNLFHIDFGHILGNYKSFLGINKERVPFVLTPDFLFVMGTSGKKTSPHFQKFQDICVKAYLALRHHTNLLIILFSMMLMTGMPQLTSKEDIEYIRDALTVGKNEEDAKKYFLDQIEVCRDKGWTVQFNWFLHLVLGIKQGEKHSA
Chain of CHUK (human) (O15111 whole entry, looked up): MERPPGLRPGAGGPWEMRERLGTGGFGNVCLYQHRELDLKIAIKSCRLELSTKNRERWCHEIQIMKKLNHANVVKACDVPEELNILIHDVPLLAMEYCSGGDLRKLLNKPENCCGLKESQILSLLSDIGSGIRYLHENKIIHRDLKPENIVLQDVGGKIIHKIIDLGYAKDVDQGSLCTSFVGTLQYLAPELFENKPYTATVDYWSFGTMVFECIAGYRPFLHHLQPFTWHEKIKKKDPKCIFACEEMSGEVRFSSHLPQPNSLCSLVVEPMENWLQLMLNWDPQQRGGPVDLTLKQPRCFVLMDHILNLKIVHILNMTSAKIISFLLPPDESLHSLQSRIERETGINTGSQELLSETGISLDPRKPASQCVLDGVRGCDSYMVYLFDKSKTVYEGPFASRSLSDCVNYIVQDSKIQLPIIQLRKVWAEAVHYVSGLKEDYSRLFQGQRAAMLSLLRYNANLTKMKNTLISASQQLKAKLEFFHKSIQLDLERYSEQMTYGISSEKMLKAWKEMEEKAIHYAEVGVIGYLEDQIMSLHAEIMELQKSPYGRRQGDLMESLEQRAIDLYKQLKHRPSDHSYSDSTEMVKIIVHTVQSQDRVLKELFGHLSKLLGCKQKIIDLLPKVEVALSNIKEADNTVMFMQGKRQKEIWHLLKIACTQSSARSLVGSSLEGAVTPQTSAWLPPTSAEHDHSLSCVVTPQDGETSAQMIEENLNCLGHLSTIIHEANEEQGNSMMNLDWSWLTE

SMILES: CN(C)C/C=C/C(=O)Nc1cccc(C(=O)Nc2ccc(Nc3nccc(-c4cccnc4)n3)cc2)c1
- kinase still bound, per cent of control (MAP3K9 (human)): 80%
- kinase still bound, per cent of control (RPS6KA2 KD2 (human)): 92%
- kinase still bound, per cent of control (MAP2K4 (human)): 78%
- kinase still bound, per cent of control (CLK2 (human)): 18%
- kinase still bound, per cent of control (HUNK (human)): 65%
- kinase still bound, per cent of control [1]: 100%
- Kd (CDKL5 (human)): 34 nM
- kinase still bound, per cent of control (CDKL5 (human); compound 1.0 µM): 1.7%
- kinase still bound, per cent of control (MAPK7 (human)): 100%
- kinase still bound, per cent of control (ALK (human)): 100%
- kinase still bound, per cent of control (STK32B (human)): 100%
- kinase still bound, per cent of control (DYRK1A (human)): 37%
- kinase still bound, per cent of control (MAPKAPK2 (human)): 100%
- kinase still bound, per cent of control (PIM3 (human)): 92%
- kinase still bound, per cent of control (EPHB6 (human)): 18%
- kinase still bound, per cent of control (PRKAA1 (human)): 92%
- kinase still bound, per cent of control (IGF1R (human)): 100%
- kinase still bound, per cent of control [2]: 100%
- kinase still bound, per cent of control (TEC (human)): 100%
- kinase still bound, per cent of control (CDC42BPB (human)): 93%
- kinase still bound, per cent of control (EPHA8 (human)): 90%
- kinase still bound, per cent of control (NEK9 (human)): 48%
- kinase still bound, per cent of control (EPHA5 (human)): 96%
- kinase still bound, per cent of control [3]: 74%
- kinase still bound, per cent of control (NEK6 (human)): 17%
- kinase still bound, per cent of control (MKNK2 (human)): 13%
- kinase still bound, per cent of control (MAP3K2 (human)): 100%
- kinase still bound, per cent of control (PIK3CG (human)): 21%
- kinase still bound, per cent of control [4]: 100%
- kinase still bound, per cent of control (BTK (human)): 76%
- kinase still bound, per cent of control (STK16 (human)): 15%
- kinase still bound, per cent of control (PIM1 (human)): 94%
- kinase still bound, per cent of control [5]: 81%
- kinase still bound, per cent of control (MTOR (human)): 100%
- kinase still bound, per cent of control (FGFR3 (human)): 78%
- kinase still bound, per cent of control (CDK2 (human)): 100%
- kinase still bound, per cent of control (CHUK (human)): 53%
- kinase still bound, per cent of control (PIK3CB (human)): 94%
- kinase still bound, per cent of control (MAP3K5 (human)): 100%
- kinase still bound, per cent of control (CLK4 (human)): 16%
- kinase still bound, per cent of control (MELK (human)): 30%
- kinase still bound, per cent of control [6]: 91%
- kinase still bound, per cent of control (PRKAA2 (human)): 81%
- kinase still bound, per cent of control (INSR (human)): 100%
